These results are taken from patent US20250205385A1, “SILICONE MATERIAL, SILICONE TUBE, IMPLANT, PHARMACEUTICAL COMPOSITION, AND TEST METHOD FOR AMOUNT OF DRUG RELEASED” (SHENYANG XINGHUA PHARMACEUTICAL TECHNOLOGY CO., LTD, priority 2022, published 2025).

The conditions of series [1]: cited from earlier work; for Solubility: in water.
For series [2] the following is noted: cited from earlier work.
Series [3] can be described thus: Equilibrium solubility of gestodene bulk drug in water and normal saline, before and after micronization. Conditions: thermodynamic from solid, shaken 72 hours. The format is physicochemical. The method, then:
The prepared implant needs to be implanted in the subcutaneous tissue of the human upper arm, where the pH is close to neutral. Therefore, the release medium can be either water or normal saline. A supersaturated solution of the gestodene bulk drug in water and normal saline, both before and after micronization, was prepared. The solution was placed in a shaker and shaken for 72 hours. After shaking, the mixture was taken out and centrifuged, and the supernatant was filtered. The equilibrium solubility of the gestodene bulk drug in water and normal saline, both before and after micronization, was determined using high performance liquid chromatography. Based on the results, the appropriate release medium was selected.
In vitro release experiments were conducted on implants with different silicone tube wall thicknesses, medicinal core side areas, and drug particle sizes. Based on the in vitro release results, long-acting contraceptive implants with a daily drug release of 10-30 μg were prepared. The prepared implant was implanted in the subcutaneous tissue of the human upper arm, where the pH was close to neutral, allowing the release medium to be chosen between water and normal saline. A supersaturated solution of the gestodene bulk drug in water and normal saline, both before and after micronization, was prepared. The solution was placed in a shaker and shaken for 72 hours. After shaking, the mixture was taken out and centrifuged, and the supernatant was filtered. The equilibrium solubility of the gestodene bulk drug in water and normal saline, both before and after micronization, was determined using high performance liquid chromatography. Based on the results, the appropriate release medium was selected. Water was selected as the release medium for the in vitro release experiments. In the following experiments to investigate the in vitro release amount, the implant from Example 27 was subjected to depowdering pre-treatment, which involved adding 50 mL of anhydrous ethanol to a conical flask containing the implant, followed by ultrasonication for 1 minute. This process was repeated three times, after which 100 mL of distilled water was added and left overnight. The next day, the soaking solution was discarded, and the implant was placed in a shaker for in vitro release.

Converted amounts (≈) assume the structure as drawn. Where two headings read alike, the source gives them in different places.

For the compound `O=c1c(-c2ccc(O)cc2)coc2c([C@@H]3O[C@H](CO)[C@@H](O)[C@H](O)[C@H]3O)c(O)ccc12` [puerarin], in series [1] (bulk drug), the Solubility (commonly the dissolved amount per volume that the medium holds) is 4000 µg/mL (≈ 9610 µM); the LogP (in general, the decadic logarithm of the partition coefficient of the neutral form, usually between octanol and water) is −0.67; the pKa – broadly, the pH at which an ionisable group is half protonated – is reported as 6.45. Moreover, in series [1], the pKa was 6.45 and the solubility in water was 4000 µg/mL (≈ 9610 µM).

In the case of `C#C[C@]1(O)C=C[C@H]2[C@@H]3CCC4=CC(=O)CC[C@@H]4[C@H]3CC[C@@]21CC` [gestodene], the bioavailability (in general, the share of a dose that reaches the circulation, judged against a reference dose that is usually intravenous) in series [2] (background statement) is on record as roughly 100%. For the same compound, the “daily release sufficient to produce a contraceptive effect” value in series [2] (humans, review of the literature) is 10 to 20 µg. Also, the solubility (usually the dissolved amount per volume that the medium holds) at 72 h in series [3] (normal saline, saline or isotonic, drug particle size 2.81 μm (micronized), normal saline (NS)) was 2.71 ± 0.24 µg/mL (≈ 8.73 µM); in series [3] (normal saline, saline or isotonic, drug particle size 80.30 μm (unmicronized), normal saline (NS)) it was 5.3 ± 0.58 µg/mL (≈ 17.1 µM); in series [3] (water or normal saline, drug particle size 2.81 μm (micronized), water) it was 4.11 ± 0.52 µg/mL (≈ 13.2 µM); in series [3] (water or normal saline, drug particle size 80.30 μm (unmicronized), water), 5.64 ± 0.62 µg/mL (≈ 18.2 µM).

As to `CC(C)Cc1ccc(C(C)C(=O)O)cc1` (stereo not shown) [ibuprofen], in series [1] (bulk drug), the Solubility is 60 µg/mL (≈ 291 µM) and the LogP is recorded as 3.72. In addition, in series [1], the solubility in water was 60 µg/mL (≈ 291 µM).

`Cc1nc2n(c(=O)c1CCN1CCC(c3noc4cc(F)ccc34)CC1)CCCC2O` (stereo not shown) [paliperidone]: in series [1] (bulk drug), the LogP is 3.02 and the pKa is listed as 7.72. Besides, the pKa in series [1] is 7.72.

On to `Cc1cnc(NC(=O)C2=C(O)c3ccccc3S(=O)(=O)N2C)s1` [meloxicam], for which, in series [1] (bulk drug), the Solubility was 3.4 µg/mL (≈ 9.68 µM), the LogP is 3.35 and the pKa was 4. In series [1], the pKa is 4 and the solubility in water is 3.4 µg/mL (≈ 9.68 µM).
